According to patent publication US11612586B2, “Indole regulation of antigen presenting cells” (THE TEXAS A&M UNIVERSITY SYSTEM, priority 2016, dated 2023):

How the values were obtained:
[1] = system: Stat3; assay: IL-6 induced pSTAT3 signaling in splenic DCs; type: cell-based, mouse; conditions: splenic DCs, 1 mM TDMM 24 hours, IL-6 (10 ng/ml) 30 minutes
Protocol: Briefly, flow cytometric analysis was performed on splenic DCs conditioned with the indicated TDMMs for 24 hours and then subsequently stimulated with 10 ng/ml IL-6 for 30 minutes.

[2] = system: Thy1.2+CD4+ T cells; assay: In vivo T cell activation by conditioned, OVA-loaded BMDCs transferred to B6-Thy1.1 mice; set-up: species or system mouse; conditions: mice receiving BMDCs conditioned with indole
From the text: FIGS. 17A-17C graphically illustrate that indole-conditioned DCs induce lower T cell activation overall but a greater proportion of Tregs in spleen compared to control. Naïve CD4+CD25− T cells from OT-II (Thy1.2) mice and OVA323-339-loaded BMDCs conditioned with indole, RA, or DMF were transferred to B6-Thy1.1 mice. After 7 days, tissues were harvested and stained for flow cytometric analysis. Data includes total expansion of Thy1.2+CD4+ T cells (FIG. 17A), percentage of Foxp3+CD4+ T cells of expanded T cells (FIG. 17B), and MFI of Foxp3+CD4+ T cells of expanded T cells (FIG. 17C). n=4 mice/group.
To address the functionality of indole DC-induced Tregs, an in vivo T cell activation system was employed. The pan T cell surface antigen, Thy1, has congenic alleles, Thy1.1 and Thy1.2, which can be used to differentiate donor and recipient T cells. Naïve CD4+CD25− T cells were purified from OT-II (Thy1.2) mice, then transferred them to recipient Thy1.1 mice. Indole-treated, OVA323-339 peptide-loaded BMDCs (Thy1.2) was subsequently transferred to the same recipient Thy1.1 mice. After five days, the recipient mice were sacrificed to assess activation of the transferred naïve T cells, which could only be activated by the transferred, peptide-loaded DCs and are identifiable by the Thy1.2 T cell surface antigen. Cellular populations from the spleen, mesenteric lymph nodes, and pooled distal lymph nodes (axial and inguinal), were examined limiting the analysis to CD4+ T cells bearing the Thy1.2 allele (donor-derived). Importantly, the DCs transferred without OVA peptide loading (negative control) induced virtually undetectable T cell activation. This confirms the specificity of the present model, ensuring that T cell activation in Thy1.2 T cells was solely due to interaction with our experimental BMDCs.
Naïve CD4+CD25− T cells from spleens and lymph nodes of OT-II mice were isolated by column purification as described above and resuspended in sterile Hanks Balanced Saline Solution (HBSS). […]

[3] = system: Th1 cells; assay: Th1 differentiation in DC-T cell co-culture; type: cell-based, mouse
Protocol: FIGS. 19A-19C graphically illustrate that indole-conditioned DCs inhibit Th1, Th2, and Th17 differentiation. Naïve CD4+CD25-T cells from OT-II TCR transgenic mice were isolated by column purification. Naïve T cells were then co-cultured with OVA323-339 peptide-loaded BMDCs for 72 hours in the presence or absence of lineage-skewing cytokines (described in methods). BMDCs were previously treated with indole, RA, or DMF from day 3. For the last 5 hours of culture, T cells were restimulated with PMA and ionomycin in the presence of Golgiplug, followed by intracellular staining. Cytokine production was determined to assess differentiation of Th1 (FIG. 19A), Th2 (FIG. 19B), and Th17 CD4+T (FIG. 19C) cells. Mean of three independent experiments. * indicates p<0.05 for one-way ANOVA followed by Dunnett's post-test.
FIGS. 20A and 20B graphically illustrate that T cell skewing mediated by indole-conditioned DCs is AhR-independent. BMDCs were differentiated from WT or AhR-KO mice and conditioned with indole, RA, or DMF from day 3. DCs were then loaded with OVA323-339 and co-cultured with naïve CD4+CD25− T cells from OT-II transgenic mice for 72 hours. […] Subsequently, all cultures were stained and analyzed by flow cytometry for Foxp3 to identify Tregs or (B) IFNγ to identify Th1 cells. […]

Structure (SMILES): c1ccc2[nH]ccc2c1 [Indole, indole]
- IL-6 induced pSTAT3 expression, CD4+ DCs [1]: ↓↓
- IL-6 induced pSTAT3 expression, CD4− DCs [1]: ↓↓
- Foxp3 mean fluorescence intensity of splenic Tregs [2]: higher mean fluorescence intensity
- Tregs in the spleen of newly activated T cells compared to RA-DCs or DMF-DCs [2]: two times more Tregs
- T cell expansion, less than controls ([2]; spleen, mesenteric and distal lymph nodes): more than 2 fold
- development of Th1 lineage ([3]; co-culture with DCs conditioned with indole): stark inhibition
- AhR dependence of inhibition of the Th1 lineage ([3]; indole-conditioned BMDCs from wild-type or AhR-deficient mice): AhR-independent
